Patent publication KR20080072496A, “노스탁속 균주 유래 아밀로플루란네이즈 및 이를 이용한고순도 말토올리고당의 제조방법” (재단법인서울대학교산학협력재단, priority 2007, dated 2008)

Target: T1, Nostoc sp. PCC73102 amylopullulanase, SEQ ID NO: 4, recombinant from pETNPul6xH with C-terminal Leu-Glu-6His (노스탁속 균주 유래 아밀로플루란네이즈) (Nostoc punctiforme (strain ATCC 29133 / PCC 73102), UniProt B2IUW9)
T1 sequence (B2IUW9 1-488): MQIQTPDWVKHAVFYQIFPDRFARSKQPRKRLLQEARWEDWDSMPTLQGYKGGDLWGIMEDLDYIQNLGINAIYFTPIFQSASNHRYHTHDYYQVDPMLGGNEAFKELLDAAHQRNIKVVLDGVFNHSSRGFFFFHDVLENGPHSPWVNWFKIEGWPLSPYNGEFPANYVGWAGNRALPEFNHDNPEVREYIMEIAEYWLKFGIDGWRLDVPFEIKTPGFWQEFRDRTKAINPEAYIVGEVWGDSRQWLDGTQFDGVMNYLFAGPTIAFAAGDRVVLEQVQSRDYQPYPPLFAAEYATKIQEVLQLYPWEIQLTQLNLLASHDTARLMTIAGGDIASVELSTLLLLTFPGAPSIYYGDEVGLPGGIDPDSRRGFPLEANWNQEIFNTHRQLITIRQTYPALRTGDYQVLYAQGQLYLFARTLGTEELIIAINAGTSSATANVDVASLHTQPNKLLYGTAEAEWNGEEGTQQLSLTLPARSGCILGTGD
Experiment: Kinetics of amylopullulanase on maltoheptaose, maltooctaose and maltononaose (Example 6-2, glucose quantified by GOD-POD method)
Type: biochemical
Conditions: 25 °C, pH 7, 3 min

| Compound | Kcat, ratio to Kcat of maltoheptaose (relative to maltoheptaose (G7)) | Km, ratio to Km of maltononaose (relative to maltononaose (G9)) | Km, ratio to Km of maltooctaose (relative to maltooctaose (G8)) |
| --- | --- | --- | --- |
| OC[C@H]1O[C@H](O[C@H]2[C@H](O)[C@@H](O)[C@@H](O[C@H]3[C@H](O)[C@@H](O)[C@@H](O[C@H]4[C@H](O)[C@@H](O)[C@@H](O[C@H]5[C@H](O)[C@@H](O)[C@@H](O[C@H]6[C@H](O)[C@@H](O)[C@@H](O[C@H]7[C@H](O)[C@@H](O)[C@@H](O[C@H]8[C@H](O)[C@@H](O)[C@@H](O[C@H]9[C@H](O)[C@@H](O)C(O)O[C@@H]9CO)O[C@@H]8CO)O[C@@H]7CO)O[C@@H]6CO)O[C@@H]5CO)O[C@@H]4CO)O[C@@H]3CO)O[C@@H]2CO)[C@H](O)[C@@H](O)[C@@H]1O (stereo partly drawn) [말토노나오스, maltononaose] | ~3 배 (fold) |  |  |
| OC[C@H]1O[C@H](O[C@H]2[C@H](O)[C@@H](O)[C@@H](O[C@H]3[C@H](O)[C@@H](O)[C@@H](O[C@H]4[C@H](O)[C@@H](O)[C@@H](O[C@H]5[C@H](O)[C@@H](O)[C@@H](O[C@H]6[C@H](O)[C@@H](O)[C@@H](O[C@H]7[C@H](O)[C@@H](O)C(O)O[C@@H]7CO)O[C@@H]6CO)O[C@@H]5CO)O[C@@H]4CO)O[C@@H]3CO)O[C@@H]2CO)[C@H](O)[C@@H](O)[C@@H]1O (stereo partly drawn) [말토헵타오스, maltoheptaose] |  | 20 배 (fold) | 7 배 (fold) |
